{"source": "patent US6683079B2", "about": "“3-(amino-or aminoalkyl) pyridinone derivatives and their use for the treatment of HIV related diseases” (Centre National de la Recherche Scientifique, priority 1998, dated 2004)", "key": {"[1]": {"assay": "Antiviral activity on HIV-LAI wild type", "type": "cell-based, HIV-1", "conditions": "HIV-LAI wild type test", "description": "(§1) The antiviral activity, the expression and purification of the recombinant HIV-RT enzyme, the reverse transcriptase activities and the inhibition of RT were evaluated as described in WO 97/05 113.\n(§2) The antiviral activity of the compounds according to example 1 has been tested on various strains."}, "HIV-LAI wild type": {"test_system": "HIV-LAI wild type", "assay": "Antiviral activity on HIV-LAI wild type", "type": "cell-based, HIV-1", "conditions": "HIV-LAI wild type", "description": "as §1, §2"}, "[2]": {"assay": "Antiviral activity on HIV-1 nevirapine resistant strain", "type": "cell-based", "conditions": "HIV-1 novirapine resistant strain test", "description": "as §1\n(§3) On an HIV-1 novirapine resistant strain the activities of the compound of example 1 are as follows: […]"}, "[3]": {"test_system": "HIV-1 novirapine resistant strain", "assay": "Antiviral activity on HIV-1 nevirapine resistant strain", "type": "cell-based", "conditions": "Human immunodeficiency virus 1", "description": "as §1, §3"}, "[4]": {"assay": "Anti HIV-1 activity, HIV-1 IIIB in MT4 cells", "type": "cell-based", "conditions": "human; HIV-1 IIIIB/MT4", "description": "as §1\n(§4) The compound of example 1 has been also tested on various HIV strains and primary cell cultures. The table 1 illustrates the activity of this compound on these strains."}, "HIV-1 IIIIB/MT4": {"test_system": "HIV-1 IIIIB/MT4", "assay": "Anti HIV-1 activity, HIV-1 IIIB in MT4 cells", "type": "cell-based", "conditions": "Human immunodeficiency virus 1", "description": "as §1, §4"}, "HIV-1 AZTres./MT4": {"test_system": "HIV-1 AZTres./MT4", "assay": "Anti HIV-1 activity, HIV-1 AZT-resistant strain in MT4 cells", "type": "cell-based", "conditions": "Human immunodeficiency virus 1, MT4", "description": "as §1, §4"}, "[5]": {"assay": "Anti HIV-1 activity, HIV-1 IIIB in PBMC", "type": "cell-based", "conditions": "HIV-1 IIIB/PBMC", "description": "as §1, §4"}, "HIV-1 IIIB/PBMC": {"test_system": "HIV-1 IIIB/PBMC", "assay": "Anti HIV-1 activity, HIV-1 IIIB in PBMC", "type": "cell-based", "conditions": "Human immunodeficiency virus 1", "description": "as §1, §4"}, "[6]": {"assay": "Anti HIV activity, HIV-2 D 194 in PBMC", "type": "cell-based", "conditions": "HIV-2 D 194/PBMC", "description": "as §1, §4"}, "HIV-2 D 194/PBMC": {"test_system": "HIV-2 D 194/PBMC", "assay": "Anti HIV activity, HIV-2 D 194 in PBMC", "type": "cell-based", "conditions": "Human immunodeficiency virus 2", "description": "as §1, §4"}, "[7]": {"assay": "Anti HIV-1 activity, HIV-1 Bal in monocytes/macrophages", "type": "cell-based", "conditions": "HIV-1 Bal/Mono/macrophages", "description": "as §1, §4"}, "[8]": {"test_system": "HIV-1 Bal/Mono/macrophages", "assay": "Anti HIV-1 activity, HIV-1 Bal in monocytes/macrophages", "type": "cell-based", "conditions": "Human immunodeficiency virus 1, Macrophage", "description": "as §1, §4"}, "HIV-ILai isolate": {"test_system": "HIV-ILai isolate", "assay": "Retrovirucidal effect (residual infectivity on P4 cells)", "type": "cell-based, HIV-1", "conditions": "3 hours with virions", "description": "The retrovirucidal effect and the reverse transcription were measured as described hereinafter.\nHIV-1 viral suspensions were obtained by coculture of MT4 cells and H9 cells chronically infected by HIV-ILai isolate. 200 μl of a cell supernatant containing viral particles (HIV-ILai: 100 TCID50) were incubated at room temperature with various concentrations of different inhibitors. After 3 hours, virions were washed through 0.02 μm anopore membrane in 1.5 mL Vectaspin tube (Whatman) for 10 minutes at 5 000 g. Each of the three subsequent washes was performed in the same conditions after the viral concentrate was refilled with 500 μL of RPMI medium. Then, the viral concentrate was readjusted to the initial volume with RPMI plus 10% foetal calf serum (FCS). The residual infectivity was assayed on P4 cells as described by CHARNEAU et al. (1994, J. Mol. Biol., 241, 651-662). Briefly, P4 cells were plated using 100 μL of DMEM medium plus 10% FCS in 96 plate multi-wells at 20×10^5 cells per mL. After overnight incubation at 37° C., the supernatant was discarded and the viral preparation (200 μL) was added. One day later the wells were washed three times in PBS. Each well was refilled with 200 μL of a reaction buffer containing 50 mM Tris-HCl pH 8.5, 100 mM 2-mercaptoethanol, 0.05% Triton X-100 and 5 mM 4-methylumbelliferyl β-D-galactopyranoside (MUG). After 3 hours at 37° C., the level of the reaction was measured in a fluorescence microplate reader.\nThe retrovirucidal effect of the compound according to example 1 has been tested."}, "[9]": {"molecular_target": "T1, recombinant HIV-RT enzyme (Human immunodeficiency virus type 1 group M subtype B, UniProt P03366)", "T1 construct": "the recombinant HIV-RT enzyme; made in house", "assay": "Inhibition of the reverse transcriptase", "type": "biochemical", "description": "as §1\nThe IC50 of the compound of example 1 for the inhibition of the reverse transcriptase is 20 nM."}}}
{"compound": "CCc1c(C)[nH]c(=O)c(N(C)C)c1Cc1cc(C)cc(C)c1", "note": "[Example 1, 3-dimethylamino-4-(3,5-dimethylbenzyl)-5-ethyl-6-methylpyridin-2(1H)-one]", "values": [{"measurement": "CC50", "setting": "[1]", "value": "> 100000", "unit": "nM"}, {"measurement": "S.I.", "setting": "HIV-LAI wild type", "value": "> 33.333"}, {"measurement": "IC50", "setting": "HIV-LAI wild type; Human immunodeficiency virus 1", "value": 0.2, "unit": "nM"}, {"measurement": "CC50", "setting": "[2]", "value": "> 10000", "unit": "nM"}, {"measurement": "IC50", "setting": "[3]", "value": "> 10000", "unit": "nM"}, {"measurement": "CC50", "setting": "[4]", "value": "> 1000", "unit": "nM"}, {"measurement": "IC50", "setting": "HIV-1 IIIIB/MT4", "value": 2.4, "unit": "nM"}, {"measurement": "IC50", "setting": "HIV-1 AZTres./MT4", "value": 0.2, "unit": "nM"}, {"measurement": "CC50", "setting": "[5]", "value": "> 1000", "unit": "nM"}, {"measurement": "IC50", "setting": "HIV-1 IIIB/PBMC", "value": 0.58, "unit": "nM"}, {"measurement": "CC50", "setting": "[6]", "value": "> 1000", "unit": "nM"}, {"measurement": "IC50", "setting": "HIV-2 D 194/PBMC", "value": "> 1000", "unit": "nM"}, {"measurement": "CC50", "setting": "[7]", "value": "> 1000", "unit": "nM"}, {"measurement": "IC50", "setting": "[8]", "value": 0.004, "unit": "nM"}, {"measurement": "% inhibition of infectivity", "setting": "HIV-ILai isolate; 1 μm compound", "value": 83, "unit": "%"}, {"measurement": "% inhibition of infectivity", "setting": "HIV-ILai isolate; 10 μm compound", "value": 99, "unit": "%"}, {"measurement": "inhibition at 0.01 µM", "setting": "HIV-ILai isolate; Human immunodeficiency virus 1, 10 nM compound", "value": 26, "unit": "%"}, {"measurement": "inhibition at 0.1 µM", "setting": "HIV-ILai isolate; Human immunodeficiency virus 1, 100 nM compound", "value": 46, "unit": "%"}, {"measurement": "IC50", "setting": "[9]", "value": 20, "unit": "nM"}]}
